What was measured:
Sprague-Dawley rats [1] = assay: Serotonin-induced apnea during REM sleep; type: in vivo; conditions: rat; for frequency of apnea during REM sleep: intraperitoneal, serotonin 0.79 mg/kg alone vs saline; for serotonin-induced increase in REM sleep apnea: pretreatment with 0.1 mg/kg intraperitoneal 15 minutes before 0.79 mg/kg serotonin
Description: (§1) Δ^9THC (dronabinol, Roxane Laboratories, Columbus, Ohio) was dissolved in DMSO: oleamide (ICN Biomedicals, Aurora, Ohio) was suspended in peanut oil with sonication for 20 minutes; and serotonin was dissolved in saline. The study was a fully nested, repeated measures crossover design, such that each animal received each of 12 intraperitoneal injections (1 ml/kg) exactly one time: vehicle alone (saline, DMSO, or peanut oil); Δ^9THC alone (0.1, 1.0, or 10.0 mg/kg); oleamide alone (0.1, 1.0, or 10.0 mg/kg); serotonin alone (0.79 mg/kg); or combination injection (0.1 mg/kg Δ^9THC followed, after 15 minutes, by 0.79 mg/kg serotonin or 0.1 mg/kg oleamide followed by 0.79 mg/kg serotonin). Each injection was made 15 minutes prior to polygraphic recording for 6 hours (10:00-16:00). Successive recordings for an individual animal were separated by at least three days and the treatments were given in random order.
(§2) Respiration was recorded by placing each animal, unrestrained, inside a single chamber plethysmograph (PLYUN1R/U; Buxco Electronics, Sharon, Conn.; dimension 6 in.×10 in.×6 in.) ventilated with a bias flow of fresh room air at a rate of 2 L/min. A cable plugged onto the animal's connector and passed through a sealed port was used to carry the bioelectrical activity from the head implant.
An accepted physiological animal model [rat; Monti, et al., Pharamcol. Biochem. Behav., 51:125-131; (1995)] of sleep apnea was used to assess the effects of a cannabinoid receptor agonist activity and/or agents having cannabimimetic activity. More specifically, sleep apneas, defined as cessation of respiratory effort for at least 2.5 seconds, were scored for each recording session and were associated with the stage in which they occurred: NREM or REM sleep. The duration requirement of 2.5 seconds represented at least 2 “missed” breaths, which is therefore analogous to a 10 second apnea duration requirement in humans, which also reflects 2-3 missed breaths. The events detected represent central apneas because decreased ventilation associated with obstructed or occluded airways would generate an increased plethysmographic signal, rather than a pause. An apnea index (AI), defined as apneas per hour in a stage was separately determined for NREM and REM sleep. The effects of sleep stage (NREM vs. REM) and injection (control vs. test compounds) were tested using ANOVA with repeated measures. Multiple comparisons were controlled using Fisher's protected least significant difference (PLSD). In addition, the timing and volume of each breath were scored by automatic analysis (Experimenters' Workbench; Datawave Technologies, Longmont, Colo.). […]

Sprague-Dawley rats [2] = assay: Sleep/wake architecture by EEG/EMG recording; type: in vivo; conditions: rat, intraperitoneal; for sleep/wake architecture: 6 hour recording
Description: Acclimatized animals were anesthetized for the implantation of cortical electrodes for electroencephalogram (EEG) recording and neck muscle electrodes for electromyogram (EMG) recording using a mixture of ketamine (Vedco, Inc., St. Joseph, Mo.; 80 mg/ml) and xylazine (Vedco, Inc., St. Joseph, Mo.; 5 mg/ml; 4:1, volume/volume) at a volume of 1 ml/kg body weight. The surface of the skull was exposed surgically and cleaned with a 20% solution of hydrogen peroxide followed by, a solution of 95% isopropyl alcohol. Next, a dental preparation of sodium fluoride: (Flura-GEL®, Saslow Dental, Mt. Prospect, Ill.) was applied to harden the skull above the parietal cortex and allowed to remain in place for 5 minutes. The fluoride mixture was then removed from the skull above the parietal cortex. The EEG electrodes consisting of four stainless steel machine screws, having leads attached thereto, were threaded into the skull to rest on the dura over the parietal cortex. A thin layer of Justi® resin cement (Saslow Dental, Mt. Prospect, Ill.) was applied to cover the screw heads (of screws implanted in the skull) and surrounding skull to further promote the adhesion of the implant. EMG electrodes consisting of two ball-shaped wires were inserted into the bilateral neck musculature. All leads (i.e., EEG and EMG leads) were soldered to a miniature connector (39F1401, Newark Electronics, Chicago, Ill.). Lastly, the entire assembly was fixed to the skull with dental cement.
as §1
Sleep and waking states were assessed using the biparietal EEG and nuchal EMG signals on 10-second epochs as described by Bennington et al. [Sleep 17:28-36 (1994)]. […] Sleep efficiency was measured as the percentage of total recorded epochs staged as NREM or REM sleep.

Sprague-Dawley rats [3] = assay: Spontaneous sleep apnea (apnea index) by plethysmography in freely moving rats; type: in vivo; conditions: rat; for breaths with long duration in typical 6-hour recordings (FIG. 1A): vs vehicle recording; for time dependence of apnea suppression during the 6-hour recording period: NREM and REM sleep; for degree of apnea suppression, Δ^9THC compared with oleamide: highest dose (10.0 mg/kg)
Description: These recoding and data analysis methods have been described in detail elsewhere [Carley and Radulovacki (Chest., 115: 1397 (1999)].
Adult, male Sprague-Dawley rats (Sasco-King, Wilmington, Mass.; 11 per test group; 300 g) were maintained on a 12-hour light (08:00-20:00 hour)/12-hour dark (20:00-08:00 hour) cycle for one week, housed in individual cages and given ad libitum access to food and water. Following the one week of acclimatization, animals were subjected to the following surgical procedures.
as §1, §2
Sleep and waking states were assessed using the biparietal EEG and nuchal EMG signals on 10-second epochs as described by Bennington et al. [Sleep 17:28-36 (1994)]. This software discriminated wakefulness (W) as a high frequency low amplitude EEG with a concomitant high EMG tone, NREM sleep by increased spindle and […] activity together with decreased EMG tone, and REM sleep by a low ratio of a delta to theta activity and an absence of EMG tone. Sleep efficiency was measured as the percentage of total recorded epochs staged as NREM or REM sleep.
(§3) An accepted physiological animal model [rat; Monti, et al., Pharamcol. Biochem. Behav., 51:125-131; (1995)] of sleep apnea was used to assess the effects of a cannabinoid receptor agonist activity and/or agents having cannabimimetic activity. More specifically, sleep apneas, defined as cessation of respiratory effort for at least 2.5 seconds, were scored for each recording session and were associated with the stage in which they occurred: NREM or REM sleep. The duration requirement of 2.5 seconds represented at least 2 “missed” breaths, which is therefore analogous to a 10 second apnea duration requirement in humans, which also reflects 2-3 missed breaths. The events detected represent central apneas because decreased ventilation associated with obstructed or occluded airways would generate an increased plethysmographic signal, rather than a pause. An apnea index (AI), defined as apneas per hour in a stage was separately determined for NREM and REM sleep. The effects of sleep stage (NREM vs. REM) and injection (control vs. test compounds) were tested using ANOVA with repeated measures. Multiple comparisons were controlled using Fisher's protected least significant difference (PLSD). In addition, the timing and volume of each breath were scored by automatic analysis (Experimenters' Workbench; Datawave Technologies, Longmont, Colo.). For each animal the mean respiratory rate (RR) and minute ventilation (MV) was computed for W throughout the 6 hour control recording and used as a baseline to normalize respiration during sleep and during test compound administration in that animal. […]

Sprague-Dawley rats [4] = assay: Respiratory rate, minute ventilation and tidal volume by plethysmography; type: in vivo; conditions: rat; for average respiratory rate (RR) / respiratory minute ventilation: intraperitoneal; for respiratory minute ventilation: compared with the effects on RR
Description: as §1, §2
The bias flow of room air (2 l/min) was more than one order of magnitude greater than the alveolar ventilation of the rat, ensuring that no rebreathing occurred. Thermal fluctuations associated with tidal respiration induced changes in plethysmograph pressure proportional to tidal volume. Plethysmograph pressure was monitored using a Validyne DP45-14 differential pressure transducer (±2 cm H20). Prior to each experimental study, the plethysmograph was calibrated for tidal volume using the method described by Epstein et al. (J. Appl. Physiol., 49, 1107 (1980)). An adaptive threshold algorithm (Datawave Systems, Longmont, Colo.) was used to measure the duration and tidal amplitude of each breath in each recording. From these values, instantaneous respiratory rate (RR) and minute ventilation (MV) were computed on a breath by breath basis. Respiratory variability was assessed by calculating the standard deviations of RR and MV for each 10 second recording epoch. These standard deviations were then averaged separately for each sleep/wake state.
as §3

CB1 receptors = CB1 receptors (Homo sapiens, UniProt P21554); conditions: cited from earlier work
CB2 receptors = CB2 receptors (Homo sapiens, UniProt P34972); conditions: cited from earlier work
[5] = intraperitoneal, 0.1 mg/kg, administered alone
[6] = intraperitoneal, 1.0 mg/kg, vs vehicle
[7] = intraperitoneal, 10.0 mg/kg, vs vehicle
[8] = 0.1-10.0 mg/kg, sleep/wake states

CB2 receptors, sequence (P34972 whole entry): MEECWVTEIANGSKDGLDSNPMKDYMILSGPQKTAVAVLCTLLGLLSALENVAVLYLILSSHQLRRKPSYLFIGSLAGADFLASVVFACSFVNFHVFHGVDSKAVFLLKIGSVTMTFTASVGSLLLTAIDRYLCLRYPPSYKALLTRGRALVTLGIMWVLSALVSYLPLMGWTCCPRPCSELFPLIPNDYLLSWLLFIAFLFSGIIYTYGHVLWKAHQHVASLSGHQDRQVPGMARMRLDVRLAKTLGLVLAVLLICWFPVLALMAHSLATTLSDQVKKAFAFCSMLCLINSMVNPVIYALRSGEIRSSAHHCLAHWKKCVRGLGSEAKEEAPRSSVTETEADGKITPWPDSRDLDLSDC
CB1 receptors, sequence (P21554 whole entry): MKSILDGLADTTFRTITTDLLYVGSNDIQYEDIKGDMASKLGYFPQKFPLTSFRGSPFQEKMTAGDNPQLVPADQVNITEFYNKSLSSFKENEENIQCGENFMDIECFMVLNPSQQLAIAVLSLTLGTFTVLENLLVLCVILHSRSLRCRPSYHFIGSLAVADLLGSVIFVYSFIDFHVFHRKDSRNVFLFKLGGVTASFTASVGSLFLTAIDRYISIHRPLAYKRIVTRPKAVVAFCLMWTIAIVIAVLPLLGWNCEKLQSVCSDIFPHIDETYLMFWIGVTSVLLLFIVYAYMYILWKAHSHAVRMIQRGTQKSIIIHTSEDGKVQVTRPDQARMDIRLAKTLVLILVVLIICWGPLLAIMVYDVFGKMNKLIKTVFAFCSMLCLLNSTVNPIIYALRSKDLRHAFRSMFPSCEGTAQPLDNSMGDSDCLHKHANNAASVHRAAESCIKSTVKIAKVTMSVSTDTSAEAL

Compound | breaths with long duration in typical 6-hour recordings (FIG. 1A) (Sprague-Dawley rats [3]; 10.0 mg/kg) | apnea expression during REM sleep (Sprague-Dawley rats [3]; [5]) | frequency of apneas during NREM sleep (Sprague-Dawley rats [3]; [6]) | apnea expression during REM sleep (Sprague-Dawley rats [3]; [7]) | frequency of apneas during NREM sleep (Sprague-Dawley rats [3]; [7]) | time dependence of apnea suppression during the 6-hour recording period (Sprague-Dawley rats [3]; intraperitoneal) | degree of apnea suppression, Δ^9THC compared with oleamide (Sprague-Dawley rats [3]; intraperitoneal) | serotonin-induced increase in REM sleep apnea (Sprague-Dawley rats [1]) | average respiratory rate (RR) (Sprague-Dawley rats [4]; 10.0 mg/kg, 6-hour recording) | average respiratory rate (RR) (Sprague-Dawley rats [4]; [8]) | respiratory minute ventilation (Sprague-Dawley rats [4]; 0.1-10.0 mg/kg) | other results
NCCc1c[nH]c2ccc(O)cc12 [serotonin] | – | – | – | – | – | – | – | – | – | – | – | frequency of apnea during REM sleep (Sprague-Dawley rats [1]): significant increase in the frequency of apnea; frequency of apnea during REM sleep (Sprague-Dawley rats [1]; listed as Serotonin): significant increase in REM sleep-apnea
CCCCCc1cc(O)c2c(c1)OC(C)(C)[C@@H]1CCC(C)=C[C@@H]21 [Δ^9THC, 9-tetrahydrocannabinol] | clear reduction in breaths with durations exceeding 1.5 seconds | neither Δ^9THC nor oleamide had any effect | reduced the frequency of apneas | significant decrease | reduced the frequency of apneas | not time-dependent | equivalent | completely blocked | significantly reduced in all sleep/wake states | dose dependent reduction in RR | Equivalent effects | change in REM sleep expression (Sprague-Dawley rats [2]; highest dose tested (10.0 mg/kg), p=0.0002): −66%; spontaneous apnea during all sleep stages (Sprague-Dawley rats [3]; intraperitoneal, 0.1-10.0 mg/kg, 6-hour recording, vs vehicle): strongly suppressed spontaneous apnea
CCCCCCCC/C=C\CCCCCCCC(N)=O [oleamide] | clear reduction in breaths with durations exceeding 1.5 seconds | neither Δ^9THC nor oleamide had any effect | suppressed apnea expression | suppressed apnea expression | suppressed apnea expression | persisted throughout the 6 hour recording interval | equivalent | completely blocked | tended to increase | dose dependent elevation of RR | Equivalent effects | binding affinity to CB1 receptors (CB1 receptors): does not appear to bind with high affinity; sleep/wake architecture (Sprague-Dawley rats [2]; 0.1 mg/kg): increased REM sleep with decreased wakefulness; sleep/wake architecture (Sprague-Dawley rats [2]; 1.0 mg/kg): increased REM sleep with decreased wakefulness; sleep/wake architecture (Sprague-Dawley rats [2]; 10.0 mg/kg): increased NREM sleep with decreased REM sleep; frequency of apneas during NREM sleep (Sprague-Dawley rats [3]; intraperitoneal, 0.1 mg/kg, vs vehicle): suppressed apnea expression; apnea expression during REM sleep (Sprague-Dawley rats [3]; [6]): suppressed apnea expression; binding affinity to CB2 receptors (CB2 receptors): does not appear to bind with high affinity; respiratory rate (RR), statistical significance of elevation (Sprague-Dawley rats [4]; 10.0 mg/kg vs. vehicle, p=0.03): achieved statistical significance only during wakefulness
